From ChEMBL document CHEMBL3885861, “Open TG-GATES”

Species on record: Rattus norvegicus
Test: Open TG-GATES - Regimen: Daily Repeat
Type: toxicity, organism-based, Sprague-Dawley
Set-up: regimen Daily Repeat, gender Male, age 6 weeks
Details: in vivo, po, 0 mg/kg, route gavage, dose level Control; for APTT / Bas / Eos / Fbg / Hb / Ht / Lym / MCH / MCHC / MCV / Mono / Neu / PT / Plat / RBC / Ret / WBC: tissue Blood
[1] = 72 h, tissue Kidney, time 3 day
[2] = 72 h, tissue Plasma, time 3 day

Compound `Cc1nnc2n1-c1ccc(Cl)cc1C(c1ccccc1Cl)=NC2` [TRIAZOLAM] has a TERMINAL_BW (72 h, time 3 day) of 223.3 g, an APTT (72 h, time 3 day) of 19.2 s and a Bas (72 h, time 3 day) of 0%. The Eos (72 h, time 3 day) was 1.2%, the Fbg (72 h, time 3 day) was 272.8 mg/dL and the Hb (72 h, time 3 day) was 13.7 g/dL. It also gave a Ht (72 h, time 3 day) of 40.9%, a Lym (72 h, time 3 day) of 75.6% and an MCH (72 h, time 3 day) of 21 pg. The MCHC (72 h, time 3 day) was 33.5%, the MCV (72 h, time 3 day) was 62.7 fL and the Mono (72 h, time 3 day) was 3%. The Neu (72 h, time 3 day) was 19.2%, the PT (72 h, time 3 day) was 13 s and the Plat (72 h, time 3 day) was 121.4 x10_4/uL. For the same compound, the RBC (72 h, time 3 day) was 651.8 x10_4/ul, the Ret (72 h, time 3 day) was 7.4% and the WBC (72 h, time 3 day) was 85.5 x10_2/uL. For the same compound, the KIDNEY_L [1] was 1 g, the KIDNEY_R [1] was 1 g and the KIDNEY_TOTAL [1] was 1.9 g. It also gave an LIVER (72 h, tissue Liver, time 3 day) of 10.5 g, an A/G [2] of 0.9 and an ALP [2] of 1815 IU/L. The ALT [2] was 48.2 IU/L, the AST [2] was 75.8 IU/L and the BUN [2] was 15 mg/dL. The CRE [2] was 0.2 mg/dL, the Ca [2] was 11.3 mg/dL and the Cl [2] was 104.8 meq/L. It also gave a DBIL [2] of 0.014 mg/dL, a GLC [2] of 172.2 mg/dL and an IP [2] of 8.4 mg/dL. For the same compound, the K [2] was 4 meq/L, the LDH [2] was 74.8 IU/L and the Na [2] was 143.2 meq/L. It also gave a PL [2] of 168.8 mg/dL, an RALB [2] of 2.6 g/dL and a TBIL [2] of 0.054 mg/dL. It also gave a TC [2] of 86.4 mg/dL, a TG [2] of 126 mg/dL and a TP [2] of 5.6 g/dL. For the same compound, the gamma-GTP [2] was 1.2 IU/L, the TERMINAL_BW ([…], time 7 day) was 259.3 g and the TERMINAL_BW ([…], time 14 day) was 313.4 g. It also gave a TERMINAL_BW ([…], time 28 day) of 389.2 g, an APTT ([…], time 7 day) of 21.5 s and a Bas ([…], time 7 day) of 0%. For the same compound, the Eos ([…], time 7 day) was 1.2%, the Fbg ([…], time 7 day) was 262.4 mg/dL and the Hb ([…], time 7 day) was 13.7 g/dL. It also gave a Ht ([…], time 7 day) of 40.7%, a Lym ([…], time 7 day) of 76.4% and an MCH ([…], time 7 day) of 20.6 pg. The MCHC ([…], time 7 day) was 33.7%, the MCV ([…], time 7 day) was 61.2 fL and the Mono ([…], time 7 day) was 2.4%. For the same compound, the Neu ([…], time 7 day) was 19.4%, the PT ([…], time 7 day) was 12.8 s and the Plat ([…], time 7 day) was 126.9 x10_4/uL. The RBC ([…], time 7 day) was 665.6 x10_4/ul, the Ret ([…], time 7 day) was 5.6% and the WBC ([…], time 7 day) was 92.9 x10_2/uL. For the same compound, the APTT ([…], time 14 day) was 18.7 s, the Bas ([…], time 14 day) was 0.4% and the Eos ([…], time 14 day) was 1%. The Fbg ([…], time 14 day) was 250.2 mg/dL, the Hb ([…], time 14 day) was 14.4 g/dL and the Ht ([…], time 14 day) was 43.9%. The Lym ([…], time 14 day) was 74.6%, the MCH ([…], time 14 day) was 19.9 pg and the MCHC ([…], time 14 day) was 32.8%. For the same compound, the MCV ([…], time 14 day) was 60.6 fL, the Mono ([…], time 14 day) was 2.4% and the Neu ([…], time 14 day) was 21%. The PT ([…], time 14 day) was 13.6 s, the Plat ([…], time 14 day) was 122.6 x10_4/uL and the RBC ([…], time 14 day) was 723.8 x10_4/ul. It also gave a Ret ([…], time 14 day) of 4.5%, a WBC ([…], time 14 day) of 116.9 x10_2/uL and an APTT ([…], time 28 day) of 18.6 s. For the same compound, the Bas ([…], time 28 day) was 0.4%, the Eos ([…], time 28 day) was 1.4% and the Fbg ([…], time 28 day) was 262.6 mg/dL. For the same compound, the Hb ([…], time 28 day) was 15.3 g/dL and the Ht ([…], time 28 day) was 45.3%.
